{"source": "the supplement of paper PMC11451515", "conditions_in_all_cases": "48 h", "key": {"SEM cells [1]": {"test_system": "SEM cells", "experiment": "cell viability relative to DMSO control; higher = less cytotoxic", "method_in_brief": "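Cells were incubated for 48 h at 37°C before CellTiter-Glo One luminescence was read. The cells were NOMO1 or SEM (500 cells/well) or P12-Ichikawa (1000 cells/well) leukemia cells, adapted for at least four passages in each medium and seeded in 1536-well plates (5 μl). Dosing used library compounds in DMSO applied by pin over 11 threefold points, 47 μM to 0.79 nM. Viability is the per-plate percentage of DMSO wells, with cell-free wells as background.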"}, "NOMO1": {"test_system": "NOMO1", "experiment": "AUC of viability dose-response curve (% viability x log10 dose units); higher = less sensitive", "method_in_brief": "(§1)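 Leukemia cells adapted to each medium were seeded at 500 or 1000 cells/well in 1536-well plates and dosed with library compounds in DMSO at 11 threefold doses from 47 μM to 0.79 nM for 48 h at 37°C. CellTiter-Glo One luminescence was normalised per plate to DMSO and cell-free wells, then fitted with a four-parameter log-logistic model over log10 doses. Area under the curve was taken from this fit by the trapezoidal rule, with curves above full viability scaled and curves failing quality control removed.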"}, "P12-Ichikawa": {"test_system": "P12-Ichikawa", "experiment": "AUC of viability dose-response curve (% viability x log10 dose units); higher = less sensitive", "method_in_brief": "as §1"}, "SEM cells [2]": {"test_system": "SEM cells", "experiment": "AUC of viability dose-response curve (% viability x log10 dose units); higher = less sensitive", "method_in_brief": "as §1"}, "[3]": {"conditions": "HPLM + 10% dialyzed FBS, 0.000781 µM"}, "[4]": {"conditions": "HPLM + 10% dialyzed FBS, 0.00234 µM"}, "[5]": {"conditions": "HPLM + 10% dialyzed FBS, 0.00702 µM"}, "[6]": {"conditions": "HPLM + 10% dialyzed FBS, 0.0211 µM"}, "[7]": {"conditions": "HPLM + 10% dialyzed FBS, 0.0632 µM"}, "[8]": {"conditions": "HPLM + 10% dialyzed FBS, 0.19 µM"}, "[9]": {"conditions": "HPLM + 10% dialyzed FBS, 0.569 µM"}, "[10]": {"conditions": "HPLM + 10% dialyzed FBS, 1.71 µM"}, "[11]": {"conditions": "HPLM + 10% dialyzed FBS, 5.12 µM"}, "[12]": {"conditions": "HPLM + 10% dialyzed FBS, 15.4 µM"}, "[13]": {"conditions": "HPLM + 10% dialyzed FBS, 46.1 µM"}, "[14]": {"conditions": "RPMI 5 mM glucose + 10% dialyzed FBS"}}}
{"smiles": "Cc1cccc(C)c1NC(=O)CN1CCCC1=O", "values": [{"measurement": "cell viability", "setting": "SEM cells [1]; [3]", "result": 115, "unit": "%"}, {"measurement": "cell viability", "setting": "SEM cells [1]; [4]", "result": 121, "unit": "%"}, {"measurement": "cell viability", "setting": "SEM cells [1]; [5]", "result": 125, "unit": "%"}, {"measurement": "cell viability", "setting": "SEM cells [1]; [6]", "result": 123, "unit": "%"}, {"measurement": "cell viability", "setting": "SEM cells [1]; [7]", "result": 125, "unit": "%"}, {"measurement": "cell viability", "setting": "SEM cells [1]; [8]", "result": 122, "unit": "%"}, {"measurement": "cell viability", "setting": "SEM cells [1]; [9]", "result": 126, "unit": "%"}, {"measurement": "cell viability", "setting": "SEM cells [1]; [10]", "result": 129, "unit": "%"}, {"measurement": "cell viability", "setting": "SEM cells [1]; [11]", "result": 122, "unit": "%"}, {"measurement": "cell viability", "setting": "SEM cells [1]; [12]", "result": 116, "unit": "%"}, {"measurement": "cell viability", "setting": "SEM cells [1]; [13]", "result": 103, "unit": "%"}, {"measurement": "AUC of viability dose-response curve", "setting": "NOMO1; HPLM + 10% dialyzed FBS", "result": 463}, {"measurement": "AUC of viability dose-response curve", "setting": "NOMO1; RPMI 5 mM glucose + 10% FBS", "result": 458}, {"measurement": "AUC of viability dose-response curve", "setting": "NOMO1; [14]", "result": 470}, {"measurement": "AUC of viability dose-response curve", "setting": "P12-Ichikawa; HPLM + 10% dialyzed FBS", "result": 444}, {"measurement": "AUC of viability dose-response curve", "setting": "P12-Ichikawa; RPMI 5 mM glucose + 10% FBS", "result": 434}, {"measurement": "AUC of viability dose-response curve", "setting": "P12-Ichikawa; [14]", "result": 458}, {"measurement": "AUC of viability dose-response curve", "setting": "SEM cells [2]; HPLM + 10% dialyzed FBS", "result": 470}, {"measurement": "AUC of viability dose-response curve", "setting": "SEM cells [2]; RPMI 5 mM glucose + 10% FBS", "result": 461}, {"measurement": "AUC of viability dose-response curve", "setting": "SEM cells [2]; [14]", "result": 431}]}
{"smiles": "COC(=O)C1=C(C)NC(C)=C(C(=O)OCCN2CCN(C(c3ccccc3)c3ccccc3)CC2)C1c1cccc([N+](=O)[O-])c1.Cl.Cl", "note": "(stereo not drawn)", "values": [{"measurement": "AUC of viability dose-response curve", "setting": "NOMO1; HPLM + 10% dialyzed FBS", "result": 472}, {"measurement": "AUC of viability dose-response curve", "setting": "NOMO1; RPMI 5 mM glucose + 10% FBS", "result": 464}, {"measurement": "AUC of viability dose-response curve", "setting": "NOMO1; [14]", "result": 445}, {"measurement": "AUC of viability dose-response curve", "setting": "P12-Ichikawa; HPLM + 10% dialyzed FBS", "result": 447}, {"measurement": "AUC of viability dose-response curve", "setting": "P12-Ichikawa; RPMI 5 mM glucose + 10% FBS", "result": 464}, {"measurement": "AUC of viability dose-response curve", "setting": "P12-Ichikawa; [14]", "result": 442}, {"measurement": "AUC of viability dose-response curve", "setting": "SEM cells [2]; HPLM + 10% dialyzed FBS", "result": 463}, {"measurement": "AUC of viability dose-response curve", "setting": "SEM cells [2]; RPMI 5 mM glucose + 10% FBS", "result": 421}, {"measurement": "AUC of viability dose-response curve", "setting": "SEM cells [2]; [14]", "result": 453}]}
{"smiles": "O=C([O-])Cc1ccccc1Nc1c(Cl)cccc1Cl", "values": [{"measurement": "cell viability", "setting": "SEM cells [1]; [3]", "result": 109, "unit": "%"}, {"measurement": "cell viability", "setting": "SEM cells [1]; [4]", "result": 121, "unit": "%"}, {"measurement": "cell viability", "setting": "SEM cells [1]; [5]", "result": 110, "unit": "%"}, {"measurement": "cell viability", "setting": "SEM cells [1]; [6]", "result": 125, "unit": "%"}, {"measurement": "cell viability", "setting": "SEM cells [1]; [7]", "result": 126, "unit": "%"}, {"measurement": "cell viability", "setting": "SEM cells [1]; [8]", "result": 129, "unit": "%"}, {"measurement": "cell viability", "setting": "SEM cells [1]; [9]", "result": 117, "unit": "%"}, {"measurement": "cell viability", "setting": "SEM cells [1]; [10]", "result": 122, "unit": "%"}, {"measurement": "cell viability", "setting": "SEM cells [1]; [11]", "result": 75.7, "unit": "%"}, {"measurement": "cell viability", "setting": "SEM cells [1]; [12]", "result": 112, "unit": "%"}, {"measurement": "cell viability", "setting": "SEM cells [1]; [13]", "result": 65.9, "unit": "%"}, {"measurement": "cell viability", "setting": "SEM cells [1]; RPMI 5 mM glucose + 10% FBS, 0.000781 µM", "result": 126, "unit": "%"}, {"measurement": "cell viability", "setting": "SEM cells [1]; RPMI 5 mM glucose + 10% FBS, 0.00234 µM", "result": 113, "unit": "%"}, {"measurement": "cell viability", "setting": "SEM cells [1]; RPMI 5 mM glucose + 10% FBS, 0.00702 µM", "result": 113, "unit": "%"}, {"measurement": "cell viability", "setting": "SEM cells [1]; RPMI 5 mM glucose + 10% FBS, 0.0211 µM", "result": 109, "unit": "%"}, {"measurement": "cell viability", "setting": "SEM cells [1]; RPMI 5 mM glucose + 10% FBS, 0.0632 µM", "result": 123, "unit": "%"}, {"measurement": "cell viability", "setting": "SEM cells [1]; RPMI 5 mM glucose + 10% FBS, 0.19 µM", "result": 112, "unit": "%"}, {"measurement": "cell viability", "setting": "SEM cells [1]; RPMI 5 mM glucose + 10% FBS, 0.569 µM", "result": 111, "unit": "%"}, {"measurement": "cell viability", "setting": "SEM cells [1]; RPMI 5 mM glucose + 10% FBS, 1.71 µM", "result": 111, "unit": "%"}, {"measurement": "cell viability", "setting": "SEM cells [1]; RPMI 5 mM glucose + 10% FBS, 5.12 µM", "result": 69.1, "unit": "%"}, {"measurement": "cell viability", "setting": "SEM cells [1]; RPMI 5 mM glucose + 10% FBS, 15.4 µM", "result": 108, "unit": "%"}, {"measurement": "cell viability", "setting": "SEM cells [1]; RPMI 5 mM glucose + 10% FBS, 46.1 µM", "result": 49, "unit": "%"}, {"measurement": "AUC of viability dose-response curve", "setting": "NOMO1; HPLM + 10% dialyzed FBS", "result": 454}, {"measurement": "AUC of viability dose-response curve", "setting": "NOMO1; RPMI 5 mM glucose + 10% FBS", "result": 455}, {"measurement": "AUC of viability dose-response curve", "setting": "NOMO1; [14]", "result": 458}, {"measurement": "AUC of viability dose-response curve", "setting": "P12-Ichikawa; HPLM + 10% dialyzed FBS", "result": 447}, {"measurement": "AUC of viability dose-response curve", "setting": "P12-Ichikawa; RPMI 5 mM glucose + 10% FBS", "result": 445}, {"measurement": "AUC of viability dose-response curve", "setting": "P12-Ichikawa; [14]", "result": 447}, {"measurement": "AUC of viability dose-response curve", "setting": "SEM cells [2]; HPLM + 10% dialyzed FBS", "result": 442}, {"measurement": "AUC of viability dose-response curve", "setting": "SEM cells [2]; RPMI 5 mM glucose + 10% FBS", "result": 429}, {"measurement": "AUC of viability dose-response curve", "setting": "SEM cells [2]; [14]", "result": 430}]}
{"smiles": "COc1cc(C(C)C)c(Oc2cnc(NC(CO)CO)nc2N)cc1I", "values": [{"measurement": "AUC of viability dose-response curve", "setting": "NOMO1; HPLM + 10% dialyzed FBS", "result": 468}, {"measurement": "AUC of viability dose-response curve", "setting": "NOMO1; RPMI 5 mM glucose + 10% FBS", "result": 436}, {"measurement": "AUC of viability dose-response curve", "setting": "NOMO1; [14]", "result": 457}, {"measurement": "AUC of viability dose-response curve", "setting": "P12-Ichikawa; HPLM + 10% dialyzed FBS", "result": 464}, {"measurement": "AUC of viability dose-response curve", "setting": "P12-Ichikawa; RPMI 5 mM glucose + 10% FBS", "result": 466}, {"measurement": "AUC of viability dose-response curve", "setting": "P12-Ichikawa; [14]", "result": 452}, {"measurement": "AUC of viability dose-response curve", "setting": "SEM cells [2]; HPLM + 10% dialyzed FBS", "result": 458}, {"measurement": "AUC of viability dose-response curve", "setting": "SEM cells [2]; RPMI 5 mM glucose + 10% FBS", "result": 442}, {"measurement": "AUC of viability dose-response curve", "setting": "SEM cells [2]; [14]", "result": 453}]}
{"smiles": "O=C(NCc1ccncc1)C12C[C@H]3C[C@@H](C1)CC(c1ccc(Cl)cc1)(C3)C2", "values": [{"measurement": "AUC of viability dose-response curve", "setting": "NOMO1; HPLM + 10% dialyzed FBS", "result": 419}, {"measurement": "AUC of viability dose-response curve", "setting": "NOMO1; RPMI 5 mM glucose + 10% FBS", "result": 453}, {"measurement": "AUC of viability dose-response curve", "setting": "NOMO1; [14]", "result": 451}, {"measurement": "AUC of viability dose-response curve", "setting": "P12-Ichikawa; HPLM + 10% dialyzed FBS", "result": 415}, {"measurement": "AUC of viability dose-response curve", "setting": "P12-Ichikawa; RPMI 5 mM glucose + 10% FBS", "result": 439}, {"measurement": "AUC of viability dose-response curve", "setting": "P12-Ichikawa; [14]", "result": 438}, {"measurement": "AUC of viability dose-response curve", "setting": "SEM cells [2]; HPLM + 10% dialyzed FBS", "result": 414}, {"measurement": "AUC of viability dose-response curve", "setting": "SEM cells [2]; RPMI 5 mM glucose + 10% FBS", "result": 389}, {"measurement": "AUC of viability dose-response curve", "setting": "SEM cells [2]; [14]", "result": 420}]}
